Measurements: the NIST ThermoML archive (doi:10.1007/s10765-010-0766-0)

Settings: Liquid, Pycnometric method

FC(F)C(F)(F)OCC(F)(F)F [2,2,2-trifluoroethyl 1,1,2,2-tetrafluoroethyl ether]
Settings	mass density [kg/m3]
279.15 K, 5663 kPa	1535.2
280.15 K, 6663 kPa	1534.9
280.15 K, 6673 kPa	1534.9
281.15 K, 7673 kPa	1534.6
281.15 K, 7685 kPa	1534.7
282.15 K, 8685 kPa	1534.4
282.15 K, 8696 kPa	1534.5
283.15 K, 9695 kPa	1534.2
283.15 K, 9705 kPa	1534.3
284.15 K, 10704 kPa	1534
284.15 K, 10712 kPa	1534
285.15 K, 11710 kPa	1533.8
285.15 K, 11717 kPa	1533.8
286.15 K, 12714 kPa	1533.6
286.15 K, 12720 kPa	1533.6
287.15 K, 13718 kPa	1533.4
287.15 K, 13722 kPa	1533.4
288.15 K, 14719 kPa	1533.2
288.15 K, 14722 kPa	1533.2
289.15 K, 15719 kPa	1533
289.15 K, 15720 kPa	1533
290.15 K, 16716 kPa	1532.8
290.15 K, 16717 kPa	1532.8
291.15 K, 17711 kPa	1532.6
291.15 K, 17712 kPa	1532.6
292.15 K, 18703 kPa	1532.5
292.15 K, 18704 kPa	1532.4
293.15 K, 19694 kPa	1532.3
294.15 K, 20683 kPa	1532.1
295.15 K, 21669 kPa	1531.9
296.15 K, 22653 kPa	1531.8
296.15 K, 22654 kPa	1531.8
297.15 K, 23636 kPa	1531.6
298.15 K, 24616 kPa	1531.4
298.15 K, 24617 kPa	1531.4
299.15 K, 25595 kPa	1531.3
299.15 K, 25596 kPa	1531.3
300.15 K, 26572 kPa	1531.1
300.15 K, 26573 kPa	1531.1
301.15 K, 6294 kPa	1484.4
301.15 K, 27548 kPa	1531
302.15 K, 7147 kPa	1484.2
302.15 K, 28521 kPa	1530.9
302.15 K, 28522 kPa	1530.9
303.15 K, 8010 kPa	1484
303.15 K, 8015 kPa	1484
303.15 K, 29493 kPa	1530.7
304.15 K, 8873 kPa	1483.8
304.15 K, 8874 kPa	1483.8
305.15 K, 9734 kPa	1483.6
306.15 K, 10592 kPa	1483.4
306.15 K, 10594 kPa	1483.4
307.15 K, 11449 kPa	1483.2
307.15 K, 11452 kPa	1483.2
308.15 K, 12303 kPa	1483
308.15 K, 12308 kPa	1483.1
309.15 K, 13157 kPa	1482.8
309.15 K, 13163 kPa	1482.9
310.15 K, 14009 kPa	1482.7
310.15 K, 14016 kPa	1482.7
311.15 K, 14859 kPa	1482.5
311.15 K, 14867 kPa	1482.5
312.15 K, 15708 kPa	1482.3
312.15 K, 15718 kPa	1482.4
313.15 K, 16557 kPa	1482.1
313.15 K, 16566 kPa	1482.2
314.15 K, 17405 kPa	1482
314.15 K, 17414 kPa	1482
315.15 K, 18252 kPa	1481.8
315.15 K, 18260 kPa	1481.8
316.15 K, 19097 kPa	1481.7
316.15 K, 19105 kPa	1481.7
317.15 K, 19942 kPa	1481.5
317.15 K, 19949 kPa	1481.5
318.15 K, 20785 kPa	1481.4
318.15 K, 20791 kPa	1481.4
319.15 K, 21626 kPa	1481.2
319.15 K, 21632 kPa	1481.2
320.15 K, 22467 kPa	1481.1
320.15 K, 22471 kPa	1481.1
321.15 K, 23306 kPa	1480.9
321.15 K, 23311 kPa	1480.9
322.15 K, 24144 kPa	1480.8
322.15 K, 24148 kPa	1480.8
323.15 K, 24980 kPa	1480.6
323.15 K, 24983 kPa	1480.6
324.15 K, 25816 kPa	1480.5
324.15 K, 25819 kPa	1480.5
325.15 K, 26650 kPa	1480.4
325.15 K, 26653 kPa	1480.4
326.15 K, 27482 kPa	1480.2
326.15 K, 27484 kPa	1480.2
327.15 K, 28313 kPa	1480.1
327.15 K, 28315 kPa	1480.1
328.15 K, 29144 kPa	1480
328.15 K, 29145 kPa	1480
329.15 K, 7678 kPa	1420.3
329.15 K, 7689 kPa	1420.3
329.15 K, 29973 kPa	1479.9
329.15 K, 29975 kPa	1479.9
330.15 K, 8385 kPa	1420.1
330.15 K, 8394 kPa	1420.1
331.15 K, 9091 kPa	1420
331.15 K, 9099 kPa	1419.9
332.15 K, 9796 kPa	1419.8
332.15 K, 9803 kPa	1419.8
333.15 K, 10500 kPa	1419.6
333.15 K, 10506 kPa	1419.6
334.15 K, 11204 kPa	1419.5
334.15 K, 11209 kPa	1419.5
335.15 K, 11908 kPa	1419.3
335.15 K, 11912 kPa	1419.3
336.15 K, 12610 kPa	1419.2
336.15 K, 12614 kPa	1419.1
337.15 K, 13313 kPa	1419
337.15 K, 13315 kPa	1419
338.15 K, 14014 kPa	1418.8
338.15 K, 14016 kPa	1418.8
339.15 K, 14714 kPa	1418.7
339.15 K, 14716 kPa	1418.7
340.15 K, 15413 kPa	1418.5
340.15 K, 15416 kPa	1418.5
341.15 K, 16111 kPa	1418.4
341.15 K, 16114 kPa	1418.4
